The record followed here is patent US9926294B2, “Pesticidally active heterocyclic derivatives with sulphur containing substituents” (Syngenta Participations AG, priority 2014, dated 2018).

As a reminder, the mortality is the percentage killed.

Common to all, as to assay type: in vivo
For assay [1], the system named is Plutella xylostella (diamond back moth). Nature of the assay: Example B3: Plutella xylostella larvicide, feeding/residual contact, preventive (artificial diet). To be noted: 120 h, L2 larvae on artificial diet, 5 days incubation, read-out: activity (larval mortality, antifeedant, growth regulation). The method, then: Example B3: Activity Against Plutella xylostella (Diamond Back Moth)
(Larvicide, Feeding/Residual Contact Activity, Preventive)
24-well microtiter plate (MTP) with artificial diet was treated with test solutions by pipetting. After drying, the MTPs were infested with L2 larvae (10-15 per well). After an incubation period of 5 days, samples were checked for larval mortality, antifeedant and growth regulation.

For assay [2], the system named is Thrips tabaci (onion thrips). Nature of the assay: Example B8: Thrips tabaci mixed population, feeding/residual contact, preventive. Particulars: foliar, 168 h, mixed population on sprayed sunflower leaf discs, 7 days incubation, read-out: activity (mortality, special effects). As for the experimental part:
Example B8: Activity Against Thrips tabaci (Onion Thrips)
(Mixed Population, Feeding/Residual Contact Activity, Preventive)
Sunflower leaf discs were placed on agar in a 24-well microtiter plate and sprayed with test solutions. After drying, the leaf discs were infested with a thrips population of mixed ages. After an incubation period of 7 days, samples were checked for mortality and special effects (e.g. phytotoxicity).

For assay [3], the system named is Diabrotica balteata (corn root worm). Nature of the assay: Example B4: Diabrotica balteata larvae L2 on maize sprouts, feeding/contact, preventative. To be noted: 120 h, L2 larvae on sprayed maize sprouts, 5 days incubation, read-out: activity (larval mortality, growth regulation). As for the experimental part:
Example B4: Activity Against Diabrotica Balteata (Corn Root Worm)
(Larvae L2 on Maize Sprouts, Feeding/Contact, Preventative)
Maize sprouts, placed on an agar layer in 24 well micro titer plates were treated with test solutions by spraying. After drying, the MTPs were infested with L2 larvae (6-10 per well). After an incubation period of 5 days, samples were checked for larval mortality and growth regulation.

The test system of assay [4] is Bemisia tabaci (cotton white fly). Description: Example B9: Bemisia tabaci adulticide contact activity, preventative. To be noted: foliar, 168 h, adult white flies on sprayed cotton leaf discs, 7 DAT, read-out: activity (mortality, special effects). As for the experimental part:
Example B9: Activity Against Bemisia tabaci (Cotton White Fly)
(Adulticide Contact Activity, Preventative), Adult
Cotton leaf discs were placed on agar in a 24-well microtiter plate and sprayed with test solutions. After drying, the leaf discs were infested with adult white flies. After an incubation period of 7 DAT, samples were checked for mortality and special effects (e.g. phytotoxicity).

Assay [5] has as its system Spodoptera littoralis (Egyptian cotton leaf worm). Nature of the assay: Example B1: Spodoptera littoralis larvicide, feeding/residual contact, preventive (cotton leaf discs). Particulars: foliar, 72 h, L1 larvae on sprayed cotton leaf discs, 3 days after treatment, read-out: activity (mortality, repellent effect, feeding behaviour, growth regulation). An excerpt: Example B1: Activity Against Spodoptera littoralis (Egyptian Cotton Leaf Worm)
Larvicide, Feeding/Residual Contact Activity, Preventive
Cotton leaf discs were placed on agar in a 24-well microtiter plate and sprayed with test solutions.
After drying, the leaf discs were infested with 5 L1 larvae. The samples were checked for mortality, repellent effect, feeding behaviour, and growth regulation 3 days after treatment (DAT).

The subject of assay [6] is Myzus persicae (green peach aphid). Nature of the assay: Example B7: Myzus persicae systemic/feeding activity, curative, mixed population (pea seedlings). To be noted: 144 h, roots of infested pea seedlings in test solution, 6 days after introduction, read-out: activity (mortality, special effects on the plant). From the text:
Example B7: Activity Against Myzus persicae (Green Peach Aphid)
(Systemic/Feeding Activity, Curative), Mixed Population
Roots of pea seedlings, infested with an aphid population of mixed ages, were placed directly in the test solutions. 6 days after introduction, samples were checked for mortality and special effects on the plant.

Assay [7] deals with Euschistus heros (neotropical brown stink bug). Nature of the assay: Example B10: Euschistus heros N-2 nymphs on soybean leaf. Particulars: 120 h, N-2 nymphs on sprayed soybean leaf, 5 days after infestation. The method, then:
Example B10: Activity Against Euschistus heros (Neotropical Brown Stink Bug)
Soybean leaf on agar in 24-well microtiter plates were sprayed with aqueous test solutions prepared from 10′000 ppm DMSO stock solutions. After drying the leaf were infested with N-2 nymphs. The samples were assessed for mortality 5 days after infestation.

For assay [8], the system named is Myzus persicae (green peach aphid). Description: Example B5: Myzus persicae feeding/residual contact, preventive, mixed population (sunflower leaf discs). Particulars: foliar, 144 h, mixed population on sprayed sunflower leaf discs, 6 DAT, read-out: activity (mortality, special effects). The method, then: Example B5: Activity Against Myzus persicae (Green Peach Aphid)
(Feeding/Residual Contact Activity, Preventive), Mixed Population
Sunflower leaf discs were placed on agar in a 24-well microtiter plate and sprayed with test solutions. After drying, the leaf discs were infested with an aphid population of mixed ages. After an incubation period of 6 DAT, samples were checked for mortality and special effects (e.g. phytotoxicity).

The test system of assay [9] is Spodoptera littoralis (Egyptian cotton leaf worm). Description: Example B2: Spodoptera littoralis systemic activity (lettuce on agar). To be noted: 120 h, systemic via lettuce roots, 5 days after infestation, read-out: activity (mortality, repellent effect, feeding behavior, growth regulation). From the text: Example B2: Activity Against Spodoptera littoralis (Egyptian Cotton Leaf Worm)
Test compounds were applied by pipette into 24 well plates and mixed with agar. Lettuce seeds were placed on the agar and the multi well plate is closed by another plate which contains also agar. After 7 days the roots have absorbed the compound and the lettuce has grown into the lid plate. The lettuce leaves were now cut off into the lid plate. Spodoptera eggs were pipetted through a plastic stencil on a humid gel blotting paper and the plate closed with it. The samples are checked for mortality, repellent effect, feeding behavior, and growth regulation 5 days after infestation.

The subject of assay [10] is Myzus persicae (green peach aphid). Nature of the assay: Example B6: Myzus persicae feeding activity sachet test, mixed population. To be noted: 120 h, sachet test in sucrose solution, 5 days after infestation. An excerpt: Example B6: Activity Against Myzus persicae (Green Peach Aphid)
(Feeding Activity Sachet Test), Mixed Population
Test compounds were applied by pipette into 24 well plates and mixed with Sucrose solution. The plates were closed with a stretched Parafilm. A plastic stencil with 24 holes is placed onto the plate and infested pea seedlings were placed directly on the Parafilm. The infested plate is closed with a gel blotting paper and another plastic stencil and then turned upside down. 5 days after infestation the samples were checked on mortality. Application rate: 12.5 ppm.

Assay [11] has as its system Tetranychus urticae (two-spotted spider mite). Description: Example B12: Tetranychus urticae mixed population on bean leaf discs. Particulars: foliar, 192 h, mixed population (mobile stages) on sprayed bean leaf discs, 8 days after infestation. The method, then: Example B12: Activity Against Tetranychus urticae (Two-Spotted Spider Mite)
Bean leaf discs on agar in 24-well microtiter plates were sprayed with aqueous test solutions prepared from 10′000 ppm DMSO stock solutions. After drying the leaf discs were infested with a mite population of mixed ages. The samples were assessed for mortality on mixed population (mobile stages) 8 days after infestation.

In assay [12] the test system is Frankliniella occidentalis (western flower thrips). Description: Example B11: Frankliniella occidentalis mixed population, feeding/contact, preventative. Particulars: foliar, 168 h, mixed population on sprayed sunflower leaf discs, 7 DAT, read-out: activity (mortality, special effects). The method, then:
Example B11: Activity Against Frankliniella occidentalis (Western Flower Thrips)
(Mixed Population, Feeding/Contact, Preventative)
Sunflower leaf discs are placed on agar in a 24-well microtiter plate and sprayed with test solutions. After drying, the leaf discs are infested with a Frankliniella population of mixed ages. After an incubation period of 7 DAT, samples are checked for mortality and special effects (e.g. phytotoxicity).

As to `Cn1c(-c2cc(C(F)(F)F)ccn2)nnc1-c1ncc(C(F)(F)F)cc1SCC1CC1` [Compound P76], the mortality at 400 ppm in [1], in assay [2] and in [3] was more than 80% in each case.

`CCS(=O)(=O)c1cccnc1-c1nnc(-c2cc(C(F)(F)F)ccn2)n1C` [Compound P69]: the mortality at 400 ppm in assay [4], in assay [1], in assay [5], in [3], in assay [7] and in assay [8] was more than 80% throughout. Further, the mortality at 24 ppm in [6] is not below 80%.

Take `CCS(=O)(=O)c1cc(C(F)(F)F)ccc1-c1nnc(-c2cc(C(F)(F)F)ccn2)n1C` [Compound P60]: the mortality at 400 ppm in [4], in [1], in assay [2], in assay [5], in [3] and in assay [8] was more than 80% throughout. In assay [9], the mortality at 12.5 ppm is not below 80%. Also, the mortality at 24 ppm in [6] is not below 80%.

Take `CCSc1cc(C(F)(F)F)cnc1-c1nnc(-c2cc(C(F)(F)F)ccn2)n1C` [Compound P1, 3-ethylsulfanyl-2-[4-methyl-5-[4-(trifluoromethyl)-2-pyridyl]-1,2,4-triazol-3-yl]-5-(trifluoromethyl)pyridine]: the mortality at 400 ppm in assay [4], in [1], in [2], in assay [5], in assay [3] and in [8] was more than 80% throughout.

With `CCn1c(-c2cc(C(F)(F)F)ccn2)nnc1-c1ncc(C(F)(F)F)cc1S(=O)(=O)CC` [Compound P65], the mortality at 400 ppm in assay [2], in assay [5] and in [3] was more than 80% throughout. In assay [9], the mortality at 12.5 ppm is not below 80%.

Take `CCS(=O)(=O)c1cc(C(F)(F)F)cnc1-c1nnc(-c2cc(C(F)(F)F)ccn2)n1C` [Compound P2, 3-ethylsulfonyl-2-[4-methyl-5-[4-(trifluoromethyl)-2-pyridyl]-1,2,4-triazol-3-yl]-5-(trifluoromethyl)pyridine]: the mortality at 400 ppm in assay [4], in [1], in assay [2], in [5], in assay [3] and in assay [8] was more than 80% each time. For the same compound, the mortality at 12.5 ppm in [10] and in assay [9] was not below 80% each time. For the same compound, the mortality at 24 ppm in assay [6] was not below 80%.

Take `CCS(=O)(=O)c1cc(C(F)(F)F)cnc1-c1nnc(-c2ccc(C(F)(F)F)nc2)n1C` [Compound P6]: the mortality at 400 ppm in assay [11] was not below 80%. Moreover, the mortality at 24 ppm in [6] was not below 80%.

Take `Cn1c(-c2cc(C(F)(F)F)ccn2)nnc1-c1ncc(C(F)(F)F)cc1S(=O)(=O)CC1CC1` [Compound P72]: the mortality at 400 ppm in [1] and in assay [2] was more than 80% in each case.

On to `CCS(=O)(=O)c1cc(C(F)(F)F)cnc1-c1nnc(-c2ccccc2)n1C` [Compound P11], for which the mortality at 400 ppm in assay [11] is not below 80%; in assay [3], more than 80%.

On to `CCS(=O)(=O)c1cc(C(F)(F)F)cnc1-c1nnc(-c2cc(F)cc(F)c2)n1C` [Compound P29], for which the mortality at 400 ppm in [11] was not below 80%; in assay [1], more than 80%.

As to `CCSc1cc(C(F)(F)F)ccc1-c1nnc(-c2cc(C(F)(F)F)ccn2)n1C` [Compound P59], the mortality at 400 ppm in assay [4], in assay [1], in assay [2], in assay [5], in [3] and in assay [8] was more than 80% throughout.

Consider `CCS(=O)(=O)c1cc(C(F)(F)F)cnc1-c1nnc(-c2cccnc2)n1C` [Compound P42], for which, in assay [12], the mortality at 400 ppm is more than 80%.

In turn, `CCSc1cc(OC(F)F)cnc1-c1nnc(-c2ccc(C(F)(F)F)nc2)n1C` [Compound P57] gave a mortality at 400 ppm in [11] not below 80%.

Take `CCS(=O)(=O)c1cc(C(F)(F)F)cnc1-c1nnc(-c2cnc(C(F)(F)F)nc2)n1C` [Compound P62]: the mortality at 400 ppm in assay [1], in assay [5], in assay [3], in assay [7] and in [8] was more than 80% throughout.

Turning to `CCS(=O)(=O)c1cc(C(F)(F)F)cnc1-c1nnc(-c2ccc(Cl)c(C(F)(F)F)c2)n1C` [Compound P48], the mortality at 400 ppm in assay [4], in [5], in assay [3], in assay [7] and in assay [8] was more than 80% throughout.
